In patent US10189843B2, “Fused pyrazole derivative having autotaxin inhibitory activity” (The University of Tokyo, priority 2014, dated 2019):

Biological target: T1, Human autotaxin enzyme (Homo sapiens, UniProt Q13822)
T1 construct: purchased R&D System
Assay: Evaluation of autotaxin inhibitor, Method C (18:0 Lyso PC substrate, choline assay, Resorufin fluorescence)
Assay type: biochemical
Conditions: Method C (Test Example 3), read-out: Inhibitory activity (enzyme inhibitory activity, IC50)
How it was run: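 Recombinant human autotaxin with compound and 200 μM 18:0 Lyso PC (stock) in Tris-HCl pH 7.5, NaCl, MgCl2, Triton X-100, 2 h RT. Released choline detected via choline oxidase/peroxidase/Amplex-type reagent, 20 min, resorufin fluorescence 531/598 nm; % inhibition vs no-compound and no-enzyme controls, concentration-response curve.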

IC50 [nM]	Compound
10 to 100	CCCCC1CN(CC2CCCO2)C(=O)c2cc(-c3ccc(Cl)cc3)nn21 (stereo not shown) [Compound I-0268]
10 to 100	CCCCC1CN(CC2CCOC2)C(=O)c2cc(-c3ccc(Cl)cc3)nn21 (stereo not shown) [Compound I-0269]
100 to 1000	CCCCC1CN(CCN2CCOCC2)C(=O)c2cc(-c3ccc(Cl)cc3)nn21 (stereo not shown) [Compound I-0273]
100 to 1000	CCCCC1CN(Cc2ccc(C#N)cc2)C(=O)c2cc(C3=CCC(C(F)(F)F)CC3)nn21 (stereo not shown) [Compound I-0276]
100 to 1000	CCCCC1CN(Cc2ccc(C#N)cc2)C(=O)c2cc(-c3ccc(Cl)cn3)nn21 (stereo not shown) [Compound I-0277]
≥ 1000	CCCCC1CN(Cc2ccc(C#N)cc2)C(=O)c2cc(-c3ccc(Cl)cc3CNC)nn21 (stereo not shown) [Compound I-0278]
10 to 100	CCCCC1CN(CC(=O)N2CCC(C(=O)OC)CC2)C(=O)c2cc(-c3ccc(Cl)cc3)nn21 (stereo not shown) [Compound I-0279]
10 to 100	CCCCC1CN(Cc2ccc(C#N)cc2)C(=O)c2cc(-c3ccc(Cl)cc3C#N)nn21 (stereo not shown) [Compound I-0280]
100 to 1000	CCCCC1CN(Cc2ccc(C#N)cc2)C(=O)c2cc(-c3ccc(Cl)cc3N)nn21 (stereo not shown) [Compound I-0281]
≥ 1000	CCCCC1CN(Cc2ccc(C#N)cc2)C(=O)c2cc(-c3ccc(Cl)cc3CN(C)C)nn21 (stereo not shown) [Compound I-0282]
≥ 1000	CCCCC1CN(Cc2ccc(C#N)cc2)C(=O)c2cc(-c3ccc(Cl)cc3COC)nn21 (stereo not shown) [Compound I-0284]
≥ 1000	CCCCC1CN(CN)C(=O)c2cc(-c3ccc(Cl)cc3)nn21 (stereo not shown) [Compound I-0288]
10 to 100	CCCCC1CN(CNC(=O)CC#N)C(=O)c2cc(-c3ccc(Cl)cc3)nn21 (stereo not shown) [Compound I-0289]
10 to 100	CCCOCC1CN(Cc2ccc(C#N)cc2)C(=O)c2cc(-c3ccc(Cl)cc3)nn21 (stereo not shown) [Compound I-0291]
10 to 100	CCCCC1CN(C2CCN(CC#N)C2=O)C(=O)c2cc(-c3ccc(Cl)cc3)nn21 (stereo not shown) [Compound I-0292]
100 to 1000	CCCCC1CN(Cc2ccc(C#N)cc2)C(=O)c2cc(-c3ccc(Cl)cc3CC#N)nn21 (stereo not shown) [Compound I-0293]
10 to 100	CCCCC1CN(CC2CN(CC#N)C(=O)O2)C(=O)c2cc(-c3ccc(Cl)cc3)nn21 (stereo not shown) [Compound I-0299]
≥ 1000	CCCCC1CN(Cc2ccc(C#N)cc2)C(=O)c2cc(N(C)Cc3ccc(Cl)cc3)nn21 (stereo not shown) [Compound I-0301]
100 to 1000	CCCCC1CN(Cc2ccc(C#N)cc2)C(=O)c2cc(N3CCC(F)(F)CC3)nn21 (stereo not shown) [Compound I-0302]
≥ 1000	CCCCC1CN(Cc2ccc(C#N)cc2)C(=O)c2cc(N3CC(c4ccccc4)C3)nn21 (stereo not shown) [Compound I-0303]
≥ 1000	CCCCC1CN(Cc2ccc(C#N)cc2)C(=O)c2cc(N3CCC(C#N)CC3)nn21 (stereo not shown) [Compound I-0304]
100 to 1000	CCCCC1CN(Cc2ccc(C#N)cc2)C(=O)c2cc(N3CCC(C(F)(F)F)CC3)nn21 (stereo not shown) [Compound I-0305]
≥ 1000	CCCCC1CN(Cc2ccc(C#N)cc2)C(=O)c2cc(N3Cc4ccccc4C3)nn21 (stereo not shown) [Compound I-0306]
≥ 1000	CCCCC1CN(Cc2ccc(C#N)cc2)C(=O)c2cc(-c3ccc(Cl)cc3NS(C)(=O)=O)nn21 (stereo not shown) [Compound I-0308]
100 to 1000	CCCCC1CN(Cc2ccc(C#N)cc2)C(=O)c2cc(-c3ccc(Cl)cc3NC(=O)NC)nn21 (stereo not shown) [Compound I-0309]
10 to 100	CCCCC[C@@H]1CN(CC(=O)N2CCC(C(=O)O)CC2)C(=O)c2cc(-c3ccc(Cl)cc3)nn21 [Compound I-0312]
< 10	CCCCC[C@@H]1CN(CC(=O)N2CCC(C(=O)O)CC2)C(=O)c2cc(-c3ccc(Cl)cc3)nn21 [Compound I-0313]
10 to 100	CC(=O)Nc1cc(C(F)(F)F)ccc1-c1cc2n(n1)[C@@H](C)CN(Cc1ccc(C#N)cc1)C2=O [Compound I-0333]

More lines, now with the values behind:

Compound	IC50 [nM]
CCCCC1CN(CCNC(=O)OC(C)(C)C)C(=O)c2cc(-c3ccc(Cl)cc3)nn21 (stereo not shown) [Compound I-0265]	10 to 100
CCCCC1CN(CC2CNC(=O)O2)C(=O)c2cc(-c3ccc(Cl)cc3)nn21 (stereo not shown) [Compound I-0266]	10 to 100
CCCCC1CN(CCn2cccc2)C(=O)c2cc(-c3ccc(Cl)cc3)nn21 (stereo not shown) [Compound I-0267]	100 to 1000
CCCCC1CN(CCOc2ccccc2)C(=O)c2cc(-c3ccc(Cl)cc3)nn21 (stereo not shown) [Compound I-0270]	100 to 1000
CCCCC1CN(CCOC)C(=O)c2cc(-c3ccc(Cl)cc3)nn21 (stereo not shown) [Compound I-0271]	100 to 1000
CCCCC1CN(CC2(c3ccc(OC)cc3)CC2)C(=O)c2cc(-c3ccc(Cl)cc3)nn21 (stereo not shown) [Compound I-0272]	≥ 1000
CCCCC1CN(C2COC2)C(=O)c2cc(-c3ccc(Cl)cc3)nn21 (stereo not shown) [Compound I-0274]	100 to 1000
CCCCC1CN(CC2CN(C(C)C)C(=O)O2)C(=O)c2cc(-c3ccc(Cl)cc3)nn21 (stereo not shown) [Compound I-0275]	10 to 100
CCCCC1CN(CC(=O)OC(C)(C)C)C(=O)c2cc(-c3ccc(Cl)cc3)nn21 (stereo not shown) [Compound I-0283]	100 to 1000
CC(=O)Nc1cc(Cl)ccc1-c1cc2n(n1)[C@@H](C)CN(Cc1ccc(C#N)cc1)C2=O [Compound I-0285]	< 10
CCCCC1CN(c2ccc(CC(=O)O)cc2)C(=O)c2cc(-c3ccc(Cl)cc3)nn21 (stereo not shown) [Compound I-0286]	≥ 1000
CCCCC1CN(c2ccc(CCC(=O)O)cc2)C(=O)c2cc(-c3ccc(Cl)cc3)nn21 (stereo not shown) [Compound I-0287]	≥ 1000
CCCCC1CN(CNC(=O)CO)C(=O)c2cc(-c3ccc(Cl)cc3)nn21 (stereo not shown) [Compound I-0290]	100 to 1000
CCCCC1CN(CC(=O)OCC)C(=O)c2cc(-c3ccc(Cl)cc3)nn21 (stereo not shown) [Compound I-0294]	10 to 100
CCCCCC1CN(CC(=O)N2CCC(C(=O)NC3(C#N)CC3)CC2)C(=O)c2cc(-c3ccc(Cl)cc3)nn21 (stereo not shown) [Compound I-0295]	10 to 100
C[C@H]1CN(Cc2ccc(C#N)cc2)C(=O)c2cc(-c3ccc(Cl)cc3C=O)nn21 [Compound I-0296]	100 to 1000
C[C@H]1CN(Cc2ccc(C#N)cc2)C(=O)c2cc(-c3ccc(Cl)cc3CO)nn21 [Compound I-0297]	100 to 1000
C[C@H]1CN(Cc2ccc(C#N)cc2)C(=O)c2cc(-c3ccc(Cl)cc3C#N)nn21 [Compound I-0298]	100 to 1000
C[C@H]1CN(Cc2ccc(C#N)cc2)C(=O)c2cc(-c3ccc(Cl)cc3CC#N)nn21 [Compound I-0300]	≥ 1000
CCCCC1CN(Cc2ccc(C#N)cc2)C(=O)c2cc(N3[C@@H]4CC[C@H]3CC(F)(F)C4)nn21 (stereo partly shown) [Compound I-0307]	≥ 1000
CCCCCC1CN(c2ccc(C(=O)N(C)C)cc2)C(=O)c2cc(-c3ccc(Cl)cc3)nn21 (stereo not shown) [Compound I-0310]	≥ 1000
O=C(O)c1cccc(CN2CC(COCC(F)(F)F)n3nc(-c4ccc(Cl)cc4)cc3C2=O)c1 (stereo not shown) [Compound I-0311]	< 10
N#CC1(NC(=O)CN2CC(COCC(F)(F)F)n3nc(-c4ccc(Cl)cc4)cc3C2=O)CC1 (stereo not shown) [Compound I-0314]	100 to 1000

Compound	IC50 [nM]
CC(C)(O)CNC(=O)CN1CC(COCC(F)(F)F)n2nc(-c3ccc(Cl)cc3)cc2C1=O (stereo not shown) [Compound I-0315]	100 to 1000
CC(=O)Nc1cc(Cl)ccc1-c1cc2n(n1)[C@@H](C)CN(C[C@H]1CNC(=O)O1)C2=O [Compound I-0316]	10 to 100
CC(=O)Nc1cc(Cl)ccc1-c1cc2n(n1)[C@@H](C)CN(C[C@@H]1CNC(=O)O1)C2=O [Compound I-0317]	100 to 1000
O=C(O)C1CCN(C(=O)CN2CC(COCC(F)(F)F)n3nc(-c4ccc(Cl)cc4)cc3C2=O)CC1 (stereo not shown) [Compound I-0318]	< 10
CCCOCC1CN(CC(=O)N2CCC(C(=O)O)CC2)C(=O)c2cc(-c3ccc(Cl)cc3)nn21 (stereo not shown) [Compound I-0319]	< 10
C[C@H]1CN(Cc2ccc(C#N)cc2)C(=O)c2cc(-c3ccc(Cl)cc3N)nn21 [Compound I-0320]	≥ 1000
CCCC(=O)Nc1cc(Cl)ccc1-c1cc2n(n1)[C@@H](C)CN(Cc1ccc(C#N)cc1)C2=O [Compound I-0321]	10 to 100
C[C@H]1CN(Cc2ccc(C#N)cc2)C(=O)c2cc(-c3ccc(Cl)cc3NC(=O)C3CC3)nn21 [Compound I-0322]	10 to 100
C[C@H]1CN(Cc2ccc(C#N)cc2)C(=O)c2cc(-c3ccc(Cl)cc3NS(C)(=O)=O)nn21 [Compound I-0323]	100 to 1000
C[C@H]1CN(Cc2ccc(C#N)cc2)C(=O)c2cc(-c3ccc(Cl)cc3Nc3nccs3)nn21 [Compound I-0324]	≥ 1000
CC(C#N)Nc1cc(Cl)ccc1-c1cc2n(n1)[C@@H](C)CN(Cc1ccc(C#N)cc1)C2=O (stereo partly shown) [Compound I-0325]	≥ 1000
C[C@H]1CN(Cc2ccc(C#N)cc2)C(=O)c2cc(-c3ccc(Cl)cc3Br)nn21 [Compound I-0326]	≥ 1000
C[C@H]1CN(Cc2ccc(C#N)cc2)C(=O)c2cc(-c3ccc(Cl)cc3F)nn21 [Compound I-0327]	≥ 1000
CCNc1cc(Cl)ccc1-c1cc2n(n1)[C@@H](C)CN(Cc1ccc(C#N)cc1)C2=O [Compound I-0328]	100 to 1000
COCc1cc(Cl)ccc1-c1cc2n(n1)[C@@H](C)CN(Cc1ccc(C#N)cc1)C2=O [Compound I-0329]	≥ 1000
CC(=O)Nc1cc(Cl)c(F)cc1-c1cc2n(n1)[C@@H](C)CN(Cc1ccc(C#N)cc1)C2=O [Compound I-0330]	< 10
CCCCC1CN(CC(=O)NC(C#N)Cc2ccccc2)C(=O)c2cc(-c3ccc(Cl)cc3)nn21 (stereo not shown) [Compound I-0331]	100 to 1000
C[C@H]1CN(Cc2ccc(C#N)cc2)C(=O)c2cc(-c3ccc(Cl)cc3NC(=O)CN(C)C)nn21 [Compound I-0332]	10 to 100
CC(=O)Nc1cc(OC(F)(F)F)ccc1-c1cc2n(n1)[C@@H](C)CN(Cc1ccc(C#N)cc1)C2=O [Compound I-0334]	< 10
CC(=O)Nc1cc(C#N)ccc1-c1cc2n(n1)[C@@H](C)CN(Cc1ccc(C#N)cc1)C2=O [Compound I-0335]	< 10
CNC(=O)Cc1cc(Cl)ccc1-c1cc2n(n1)[C@@H](C)CN(Cc1ccc(C#N)cc1)C2=O [Compound I-0336]	≥ 1000
CC(=O)Nc1cc(Cl)cnc1-c1cc2n(n1)[C@@H](C)CN(Cc1ccc(C#N)cc1)C2=O [Compound I-0337]	10 to 100
